Laboratory results published in US10721934B2, “Enhanced preservative” (Arch Chemicals, Inc., priority 2013, dated 2020).

What was measured:
Format in all cases: cell-based
[1] = test system: Pseudomonas aeruginosa ATCC 15442; test: Minimum Inhibitory Concentration (MIC) test, 96 well microtiter plate; conditions: single chemical
Procedure: Microorganisms: Pseudomonas aeruginosa ATCC 15442
MIC set up: A 96 well microtiter plate Minimum Inhibitory Concentration (MIC) test was run in broth suitable for the test organism. Serially diluted actives were prepared in sterilized water, and the start-up concentration varied depending on the efficacy range. Inocula prepared in 2× suitable broth was added into each well, and the final concentrations of bacteria were adjusted to approximately 5×10^5.

Aspergillus brasiliensis = test: MIC test, 96 well microtiter plate; conditions: single chemical
How it was run: (§1)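 Broth microdilution MIC in broth suited to each organism; actives serially diluted in sterile water, starting concentration set by efficacy range. Inoculum in 2× broth added per well to approximately 5×10^5 final. Amines also tested combined with a pyrithione and two isothiazolinones.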

Aureobasidium pullulans = test: MIC test, 96 well microtiter plate; conditions: single chemical
How it was run: as §1

Candida albicans = test: MIC test, 96 well microtiter plate; conditions: single chemical
How it was run: as §1

Escherichia coli = test: MIC test, 96 well microtiter plate; conditions: single chemical
How it was run: as §1

Staphylococcus aureus = test: MIC test, 96 well microtiter plate; conditions: single chemical
How it was run: as §1

[2] = test system: mixed bacterial inoculum (Pseudomonas aeruginosa, Enterobacter cloacae, Escherichia coli, Acinetobacter calcoaceticus); test: Repeated inoculation of standard acrylic paint, streak plate rating
How it was run: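 Acrylic paint containing pyrithione, isothiazolinone and biocide enhancing agent, alone or mixed at varied concentrations, was challenged three times with an aqueous suspension of the four bacteria in equal proportions. Samples were streak plated 24, 48 and 72 h after inoculation and the plates rated for growth.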

Q: With Zinc Pyrithione [ZnPT] as the substance, how does the “Minimum Inhibitory Concentration” value [1] read?
A: 62.5 ppm

Q: What about the “Minimum Inhibitory Concentration” value (Aspergillus brasiliensis) of the same substance?
A: 15.6 ppm

Q: And the “Minimum Inhibitory Concentration” value (Aureobasidium pullulans)?
A: 3.9 ppm

Q: What about the “Minimum Inhibitory Concentration” value (Candida albicans) of the same substance?
A: 7.8 ppm

Q: And the “Minimum Inhibitory Concentration” value (Escherichia coli)?
A: 3.9 ppm

Q: What about the “Minimum Inhibitory Concentration” value (Staphylococcus aureus) of the same substance?
A: 7.8 ppm

Q: What about the streak plate rating ([2]; Set Five, ZPT 50 ppm, 1st inoculation 24 h) of the same substance?
A: 0

Q: And the streak plate rating ([2]; Set Five, ZPT 50 ppm, 1st inoculation 48 h)?
A: 0

Q: What about the streak plate rating ([2]; Set Five, ZPT 50 ppm, 1st inoculation 72 h) of the same substance?
A: 0

Q: What about the streak plate rating ([2]; Set Five, ZPT 50 ppm, 2nd inoculation 24 h) of the same substance?
A: 2 (6-15 viable microorganisms Lightly contaminated)

Q: What about the streak plate rating ([2]; Set Five, ZPT 50 ppm, 2nd inoculation 48 h) of the same substance?
A: 0

Q: And the streak plate rating ([2]; Set Five, ZPT 50 ppm, 2nd inoculation 72 h)?
A: 0

Q: What about the streak plate rating ([2]; Set Five, ZPT 50 ppm, 3rd inoculation 24 h) of the same substance?
A: 3 (16-30 viable microorganisms Moderately contaminated)

Q: What about the streak plate rating ([2]; Set Five, ZPT 50 ppm, 3rd inoculation 48 h) of the same substance?
A: 5 (>45 viable microorganisms Severely contaminated)

Q: And the streak plate rating ([2]; Set Five, ZPT 50 ppm, 3rd inoculation 72 h)?
A: 5 (>45 viable microorganisms Severely contaminated)

Q: What about the streak plate rating ([2]; Set Four, ZPT 50 ppm, 1st inoculation 24 h) of the same substance?
A: 0

Q: And the streak plate rating ([2]; Set Four, ZPT 50 ppm, 1st inoculation 48 h)?
A: 0

Q: And the streak plate rating ([2]; Set Four, ZPT 50 ppm, 1st inoculation 72 h)?
A: 0

Q: What about the streak plate rating ([2]; Set Four, ZPT 50 ppm, 2nd inoculation 24 h) of the same substance?
A: 2 (6-15 viable microorganisms Lightly contaminated)

Q: And the streak plate rating ([2]; Set Four, ZPT 50 ppm, 2nd inoculation 48 h)?
A: 0

Q: What about the streak plate rating ([2]; Set Four, ZPT 50 ppm, 2nd inoculation 72 h) of the same substance?
A: 0

Q: And the streak plate rating ([2]; Set Four, ZPT 50 ppm, 3rd inoculation 24 h)?
A: 3 (16-30 viable microorganisms Moderately contaminated)

Q: And the streak plate rating ([2]; Set Four, ZPT 50 ppm, 3rd inoculation 48 h)?
A: 5 (>45 viable microorganisms Severely contaminated)

Q: And the streak plate rating ([2]; Set Four, ZPT 50 ppm, 3rd inoculation 72 h)?
A: 5 (>45 viable microorganisms Severely contaminated)

Q: What about the streak plate rating ([2]; Set One, ZPT 50 ppm, 1st inoculation 24 h) of the same substance?
A: 3 (16-30 viable microorganisms Moderately contaminated)

Q: And the streak plate rating ([2]; Set One, ZPT 50 ppm, 1st inoculation 48 h)?
A: 3 (16-30 viable microorganisms Moderately contaminated)

Q: What about the streak plate rating ([2]; Set One, ZPT 50 ppm, 2nd inoculation 24 h) of the same substance?
A: 5 (>45 viable microorganisms Severely contaminated)

Q: And the streak plate rating ([2]; Set One, ZPT 50 ppm, 2nd inoculation 48 h)?
A: 5 (>45 viable microorganisms Severely contaminated)

Q: And the streak plate rating ([2]; Set One, ZPT 50 ppm, 2nd inoculation 72 h)?
A: 5 (>45 viable microorganisms Severely contaminated)

Q: And the streak plate rating ([2]; Set One, ZPT 50 ppm, 3rd inoculation 24 h)?
A: 5 (>45 viable microorganisms Severely contaminated)

Q: And the streak plate rating ([2]; Set One, ZPT 50 ppm, 3rd inoculation 48 h)?
A: 5 (>45 viable microorganisms Severely contaminated)

Q: And the streak plate rating ([2]; Set One, ZPT 50 ppm, 3rd inoculation 72 h)?
A: 5 (>45 viable microorganisms Severely contaminated)

Q: And the streak plate rating ([2]; Set Three, ZPT 50 ppm, 1st inoculation 24 h)?
A: 5 (>45 viable microorganisms Severely contaminated)

Q: And the streak plate rating ([2]; Set Three, ZPT 50 ppm, 1st inoculation 48 h)?
A: 3 (16-30 viable microorganisms Moderately contaminated)

Q: What about the streak plate rating ([2]; Set Three, ZPT 50 ppm, 1st inoculation 72 h) of the same substance?
A: 5 (>45 viable microorganisms Severely contaminated)

Q: And the streak plate rating ([2]; Set Three, ZPT 50 ppm, 2nd inoculation 24 h)?
A: 5 (>45 viable microorganisms Severely contaminated)

Q: What about the streak plate rating ([2]; Set Three, ZPT 50 ppm, 2nd inoculation 48 h) of the same substance?
A: 5 (>45 viable microorganisms Severely contaminated)

Q: And the streak plate rating ([2]; Set Three, ZPT 50 ppm, 2nd inoculation 72 h)?
A: 5 (>45 viable microorganisms Severely contaminated)

Q: What about the streak plate rating ([2]; Set Three, ZPT 50 ppm, 3rd inoculation 24 h) of the same substance?
A: 5 (>45 viable microorganisms Severely contaminated)

Q: What about the streak plate rating ([2]; Set Three, ZPT 50 ppm, 3rd inoculation 48 h) of the same substance?
A: 5 (>45 viable microorganisms Severely contaminated)

Q: And the streak plate rating ([2]; Set Three, ZPT 50 ppm, 3rd inoculation 72 h)?
A: 5 (>45 viable microorganisms Severely contaminated)

Q: What about the streak plate rating ([2]; Set Two, ZPT 25 ppm, 1st inoculation 24 h) of the same substance?
A: 5 (>45 viable microorganisms Severely contaminated)

Q: What about the streak plate rating ([2]; Set Two, ZPT 25 ppm, 1st inoculation 48 h) of the same substance?
A: 5 (>45 viable microorganisms Severely contaminated)

Q: And the streak plate rating ([2]; Set Two, ZPT 25 ppm, 1st inoculation 72 h)?
A: 5 (>45 viable microorganisms Severely contaminated)

Q: And the streak plate rating ([2]; Set Two, ZPT 25 ppm, 2nd inoculation 24 h)?
A: 5 (>45 viable microorganisms Severely contaminated)

Q: And the streak plate rating ([2]; Set Two, ZPT 25 ppm, 2nd inoculation 48 h)?
A: 5 (>45 viable microorganisms Severely contaminated)

Q: What about the streak plate rating ([2]; Set Two, ZPT 25 ppm, 2nd inoculation 72 h) of the same substance?
A: 5 (>45 viable microorganisms Severely contaminated)

Q: What about the streak plate rating ([2]; Set Two, ZPT 25 ppm, 3rd inoculation 24 h) of the same substance?
A: 5 (>45 viable microorganisms Severely contaminated)

Q: And the streak plate rating ([2]; Set Two, ZPT 25 ppm, 3rd inoculation 48 h)?
A: 5 (>45 viable microorganisms Severely contaminated)

Q: And the streak plate rating ([2]; Set Two, ZPT 25 ppm, 3rd inoculation 72 h)?
A: 5 (>45 viable microorganisms Severely contaminated)

Q: What about the streak plate rating ([2]; Set Two, ZPT 50 ppm, 1st inoculation 24 h) of the same substance?
A: 2 (6-15 viable microorganisms Lightly contaminated)

Q: What about the streak plate rating ([2]; Set Two, ZPT 50 ppm, 1st inoculation 48 h) of the same substance?
A: 3 (16-30 viable microorganisms Moderately contaminated)

Q: And the streak plate rating ([2]; Set Two, ZPT 50 ppm, 1st inoculation 72 h)?
A: 3 (16-30 viable microorganisms Moderately contaminated)

Q: And the streak plate rating ([2]; Set Two, ZPT 50 ppm, 2nd inoculation 24 h)?
A: 4 (31-45 viable microorganisms Heavily contaminated)

Q: And the streak plate rating ([2]; Set Two, ZPT 50 ppm, 2nd inoculation 48 h)?
A: 5 (>45 viable microorganisms Severely contaminated)

Q: And the streak plate rating ([2]; Set Two, ZPT 50 ppm, 2nd inoculation 72 h)?
A: 5 (>45 viable microorganisms Severely contaminated)

Q: What about the streak plate rating ([2]; Set Two, ZPT 50 ppm, 3rd inoculation 24 h) of the same substance?
A: 5 (>45 viable microorganisms Severely contaminated)

Q: And the streak plate rating ([2]; Set Two, ZPT 50 ppm, 3rd inoculation 48 h)?
A: 5 (>45 viable microorganisms Severely contaminated)

Q: And the streak plate rating ([2]; Set Two, ZPT 50 ppm, 3rd inoculation 72 h)?
A: 5 (>45 viable microorganisms Severely contaminated)
